According to patent US9150574B2, “Enzyme inhibitor compounds” (Proximagen Limited, priority 2011, dated 2015):

What follows are molecules tested against T1, purified recombinantly expressed human SSAO (Homo sapiens, UniProt Q16853) (assay: SSAO enzyme inhibition assay (benzylamine substrate; hydrogen peroxide/HRP-coupled or 14C aldehyde detection)). Settings: human recombinant SSAO, RT, benzylamine as substrate; read-out: SSAO inhibitory activity IC50.
T1 construct: made in house
T1 sequence (Q16853 29-763 limits assumed): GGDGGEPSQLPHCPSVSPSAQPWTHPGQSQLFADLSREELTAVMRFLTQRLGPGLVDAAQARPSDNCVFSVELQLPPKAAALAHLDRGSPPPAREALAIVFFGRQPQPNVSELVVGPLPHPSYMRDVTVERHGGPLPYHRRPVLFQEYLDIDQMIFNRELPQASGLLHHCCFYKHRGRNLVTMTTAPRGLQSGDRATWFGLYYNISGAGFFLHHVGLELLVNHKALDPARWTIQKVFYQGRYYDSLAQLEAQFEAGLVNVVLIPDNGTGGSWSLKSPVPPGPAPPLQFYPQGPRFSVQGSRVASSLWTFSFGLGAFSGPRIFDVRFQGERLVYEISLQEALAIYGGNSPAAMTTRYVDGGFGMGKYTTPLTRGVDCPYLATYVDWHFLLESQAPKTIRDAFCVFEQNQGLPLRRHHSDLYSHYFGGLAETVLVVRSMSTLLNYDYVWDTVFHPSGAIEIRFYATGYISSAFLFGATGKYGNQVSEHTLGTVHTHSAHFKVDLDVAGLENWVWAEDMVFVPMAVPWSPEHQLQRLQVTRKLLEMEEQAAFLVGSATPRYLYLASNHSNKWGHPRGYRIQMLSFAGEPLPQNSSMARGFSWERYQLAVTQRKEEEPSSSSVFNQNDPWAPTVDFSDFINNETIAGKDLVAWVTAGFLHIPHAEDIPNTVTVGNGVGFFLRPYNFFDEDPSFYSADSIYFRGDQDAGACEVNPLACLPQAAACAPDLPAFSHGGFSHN
Format: biochemical
Method: All primary assays were performed at RT. with purified recombinantly expressed human SSAO. Enzyme was prepared essentially as described in Ohman et al. (Protein Expression and Purification 46 (2006) 321 331). In addition, secondary- and selectivity assays were performed using SSAO prepared from various tissues or purified rat recombinant SSAO. The enzyme activity was assayed with benzylamine as substrate by measuring either benzaldehyde production, using ^14C-labeled substrate, or by utilizing the production of hydrogen peroxide in a horseradish peroxidase (HRP) coupled reaction. Briefly, test compounds were dissolved in dimethyl sulfoxide (DMSO) to a concentration of 10 mM. Dose-response measurements were assayed by either creating 1:10 serial dilutions in DMSO to produce a 7 point curve or by making 1:3 serial dilutions in DMSO to produce 11 point curves. The top concentrations were adjusted depending on the potency of the compounds and subsequent dilution in reaction buffer yielded a final DMSO concentration ≦2%.
In a horseradish peroxidase (HRP) coupled reaction, hydrogen peroxide oxidation of 10-acetyl-3,7-dihydroxyphenoxazine produced resorufin, which is a highly fluorescent compound (Zhout and Panchuk-Voloshina. Analytical Biochemistry 253 (1997) 169-174; Amplex® Red Hydrogen Peroxide/peroxidase Assay kit, Invitrogen A22188). Enzyme and compounds in 50 mM sodium phosphate, pH 7.4 were set to pre-incubate in flat-bottomed microtiter plates for approximately 15 minutes before initiating the reaction by addition of a mixture of HRP, benzylamine and Amplex reagent. Benzylamine concentration was fixed at a concentration corresponding to the Michaelis constant, determined using standard procedures. Fluorescence intensity was then measured at several time points during 1-2 hours, exciting at 544 nm and reading the emission at 590 nm. For the human SSAO assay final concentrations of the reagents in the assay wells were: SSAO enzyme 1 μg/ml, benzylamine 100 μM, Amplex reagent 20 μM, HRP 0.1 U/mL and varying concentrations of test compound. The inhibition was measured as % decrease of the signal compared to a control without inhibitor (only diluted DMSO). The background signal from a sample containing no SSAO enzyme was subtracted from all data points. Data was fitted to a four parameter logistic model and IC50 values were calculated using the GraphPad Prism 4 or XLfit 4 programs.
SSAO activity was assayed using 14C-labeled benzylamine and analysed by measuring radioactive benzaldehyde. In a white 96-well optiplate (Packard), 20 μL of diluted test compound was pre-incubated at RT. with 20 μL SSAO enzyme for approximately 15 minutes with continuous agitation. All dilutions were made with PBS. The reaction was initiated by adding 20 μL of the benzylamine substrate solution containing [7-14C] Benzylamine hydrochloride (CFA589, GE Healthcare). The plate was incubated for 1 hour as above after which the reaction was stopped by acidification (10 μL 1 M HCl). Then 90 μL Micro Scint-E solution (Perkin-Elmer) was added to each well and the plate was continuously mixed for 15 minutes. Phase separation occurred instantly and activity was read in a Topcount scintillation counter (Perkin-Elmer). In the final reaction well, the human recombinant SSAO concentration was 10 μg/ml. In order to optimize sensitivity, the substrate concentration was decreased as compared to the HRP coupled assay in order to get a higher fraction of radioactive product. In the human SSAO assay, benzylamine concentration was 40 μM (0.2 μCi/mL). Data was analysed as above.

| IC50 [µM] | Compound |
| --- | --- |
| 0.5 to 2.5 | CCCCN(C)c1nn(-c2ccc(Cl)cc2)c2cnccc12 [Example 28, N-Butyl-1-(4-chlorophenyl)-N-methyl-1H-pyrazolo[3,4-c]pyridin-3-amine] |
| 0.1 to 0.5 | FCc1ccc(-n2nc(C3CCOCC3)c3ccncc32)cc1 [Example 29, 1-[4-(Fluoromethyl)phenyl]-3-(oxan-4-yl)-1H-pyrazolo[3,4-c]pyridine] |
| 0.1 to 0.5 | Clc1ccc(-n2nc(C3CCN(Cc4cccnc4)CC3)c3ccncc32)cc1 [Example 30, 3-({4-[1-(4-Chlorophenyl)-1H-pyrazolo[3,4-c]pyridin-3-yl]piperidin-1-yl}methyl)pyridine] |
